For data set [1], the system named is Mtb H37Rv strain. Description: microbe, parasite or virus in culture. It is filed as cell-based, Mycobacterium tuberculosis.
Data set [2] can be described thus: In vitro cytotoxicity, THP-1 cell viability after 3 days. The conditions noted are these: human, THP-1 cells. Format: cell-based.
For data set [3], the target named is wild-type InhA (Mycobacterium tuberculosis, UniProt P9WGR1). Nature of the data set: InhA inhibition assay. It is filed as biochemical.
Setting [4] is: Mycobacterium tuberculosis, H37RV.
[5] abbreviates: Mycobacterium tuberculosis, H37RV, Mtb H37Rv, dual read-out (OD590 and fluorescence).
The mark [6] stands for this setting: Mtb H37Rv, dual read-out (OD590 and fluorescence).

Converted amounts (≈) assume the structure as drawn.

Chain of wild-type InhA (P9WGR1 whole entry, looked up): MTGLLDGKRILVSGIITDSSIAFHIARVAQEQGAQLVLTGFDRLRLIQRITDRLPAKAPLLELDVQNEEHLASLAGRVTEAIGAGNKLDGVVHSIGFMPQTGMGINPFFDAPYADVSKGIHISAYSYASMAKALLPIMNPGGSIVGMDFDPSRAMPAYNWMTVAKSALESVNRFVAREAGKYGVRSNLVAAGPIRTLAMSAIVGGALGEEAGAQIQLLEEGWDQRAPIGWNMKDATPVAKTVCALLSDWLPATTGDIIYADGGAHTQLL

Consider `O=C1c2ccccc2C(=O)N1c1ccc(Br)cn1` [Compound 14, 2-(5-Bromopyridin-2-yl)isoindoline-1,3-dione], for which the MIC in data set [1] (setting [4]) is > 200 µM. Further, the IC50 in data set [1] (setting [5]) was 90 µM.
For `Cc1ccc(N2C(=O)c3ccccc3C2=O)nc1` [Compound 13, 2-(5-Methylpyridin-2-yl)isoindoline-1,3-dione], the concentration for half-maximal inhibition (IC50) in data set [1] (setting [6]) turned out to be 148 µM; in data set [1] (setting [5]) it was 160 µM. Also, the MIC in data set [1] (setting [4]) was > 200 µM.
Turning to `COc1ccc(-c2nnc(N3C(=O)c4ccccc4C3=O)s2)cc1` [Compound 16, 2-(5-(4-Methoxyphenyl)-1,3,4-thiadiazol-2-yl)isoindoline-1,3-dione], in data set [1] (setting [4]), the MIC was 182 µM (≈ 61.4 µg/mL). In addition, the IC50 in data set [1] (setting [5]) was 62 µM.
For the compound `O=C1c2ccccc2C(=O)N1c1ccc(F)c(Cl)c1` [Compound 4, 2-(3-Chloro-4-fluorophenyl)isoindoline-1,3-dione], the MIC in data set [1] (setting [4]) stood at 186 µM (≈ 51.3 µg/mL). For the same compound, the half-inhibitory concentration (IC50) in data set [1] (setting [5]) stood at 64 µM.
The matching figures for `O=C1c2ccccc2C(=O)N1c1cccc([N+](=O)[O-])c1` [Compound 10, 2-(3-Nitrophenyl)isoindoline-1,3-dione]: > 200 µM and 121 µM.
In the same order, the values of `COc1ccccc1-c1nnc(N2C(=O)c3ccccc3C2=O)s1` [Compound 22, 2-(5-(2-Methoxyphenyl)-1,3,4-thiadiazol-2-yl)isoindoline-1,3-dione] are 180 µM (≈ 60.7 µg/mL) and 58 µM.
Regarding `Cc1ccnc(N2C(=O)c3ccccc3C2=O)c1` [Compound 12, 2-(4-Methylpyridin-2-yl)isoindoline-1,3-dione], the IC50 in data set [1] (setting [6]) amounted to 160 µM; in data set [1] (setting [5]), 148 µM. Moreover, the MIC in data set [1] (setting [4]) is > 200 µM.
As for “2-(4-Methyl-2-oxo-2H-chromen-6-yl)isoindoline-1,3-dione [Compound 30]”, in data set [1] (setting [6]), the IC50 is > 200 µM and the MIC is > 200 µM.
Turning to `O=C(NN1C(=O)c2ccccc2C1=O)c1ccc(O)cc1` [Compound 20, N-(1,3-Dioxoisoindoline-2-yl)-4-hydroxybenzamide], the MIC in data set [1] (setting [4]) was > 200 µM. Further, in data set [1] (setting [5]), the IC50 is 101 µM.
Compound `O=C1c2ccccc2C(=O)N1c1nnc(-c2cccc(Cl)c2)s1` [Compound 26, 2-(5-(3-Chlorophenyl)-1,3,4-thiadiazol-2-yl)isoindoline-1,3-dione] returned an MIC in data set [1] (setting [4]) of 192 µM (≈ 65.6 µg/mL). Further, in data set [1] (setting [5]), the IC50 worked out at 80 µM.
The matching figures for `Cc1ccccc1N1C(=O)c2ccccc2C1=O` [Compound 3, 2-(o-Tolyl)isoindoline-1,3-dione]: 194 µM (≈ 46 µg/mL) and 68 µM.
For `O=C1c2ccccc2C(=O)N1c1cccc(Cl)c1` [Compound 7, 2-(3-Chlorophenyl)isoindoline-1,3-dione], the MIC in data set [1] (setting [4]) amounted to 96 µM (≈ 24.7 µg/mL). Further, the IC50 in data set [1] (setting [5]) came to 26 µM. The IC50 at 3 days in data set [2] is > 150 µM.
In turn, `NNC(=O)c1ccncc1` [Isoniazid, reference compound] registered an MIC in data set [1] (setting [4]) of 0.38 µM (≈ 0.0521 µg/mL). For the same compound, the IC50 in data set [1] (setting [5]) is 0.15 µM.
On to `O=C1c2ccccc2C(=O)N1c1ccc(Br)cc1` [Compound 8, 2-(4-Bromophenyl)isoindoline-1,3-dione], for which the MIC in data set [1] (setting [4]) came to 102 µM (≈ 30.8 µg/mL). In data set [1] (setting [5]), the IC50 was determined as 31 µM. In addition, in data set [2], the IC50 at 3 days was > 150 µM.
In the case of `Cc1nnc(N2C(=O)c3ccccc3C2=O)s1` [Compound 29, 2-(5-Methyl-1,3,4-thiadiazol-2-yl)isoindolin-1,3-dione], the MIC in data set [1] (setting [4]) is > 200 µM. In data set [1] (setting [5]), the 50% inhibitory concentration (IC50) turned out to be 100 µM.
`O=C(O)CN1C(=O)c2ccccc2C1=O` [Compound 11, 2-(1,3-Dioxoisoindolin-2-yl)acetic Acid] yielded an MIC in data set [1] (setting [4]) of 164 µM (≈ 33.6 µg/mL). For the same compound, the IC50 in data set [1] (setting [5]) was found to be 55 µM.
In the same order, the values of `Cc1cccc(-c2nnc(N3C(=O)c4ccccc4C3=O)s2)c1` [Compound 23, 2-(5-(m-Tolyl)-1,3,4-thiadiazol-2-yl)isoindoline-1,3-dione] are 123 µM (≈ 39.5 µg/mL) and 43 µM.
Turning to `O=C1c2ccccc2C(=O)N1c1nnc(-c2ccccc2)s1` [Compound 19, 2-((5-Phenyl)-1,3,4-thiadiazol-2-yl)isoindoline-1,3-dione], the MIC in data set [1] (setting [4]) was > 200 µM. For the same compound, in data set [1] (setting [5]), the IC50 is > 200 µM.
`O=C1c2ccccc2C(=O)N1c1nnc(-c2ccccc2[N+](=O)[O-])s1` [Compound 28, 2-(5-(2-Nitrophenyl)-1,3,4-thiadiazol-2-yl)isoindoline-1,3-dione]: in data set [1] (setting [4]), the MIC is > 200 µM. The 50% inhibitory concentration (IC50) in data set [1] (setting [5]) is 171 µM.
Turning to `O=C1c2ccccc2C(=O)N1c1nnc(-c2cccc(Br)c2)s1` [Compound 21, 2-(5-(3-Bromophenyl)-1,3,4-thiadiazol-2-yl)isoindoline-1,3-dione], in data set [1] (setting [4]), the MIC is > 200 µM. In addition, the 50% inhibitory concentration (IC50) in data set [1] (setting [5]) worked out at 100 µM.
Consider `O=C1c2ccccc2C(=O)N1c1ccc(F)cc1` [Compound 2, 2-(4-Fluorophenyl)isoindoline-1,3-dione], for which the MIC in data set [1] (setting [4]) is > 200 µM. The IC50 in data set [1] (setting [5]) worked out at 197 µM.
As for `O=C1c2ccccc2C(=O)N1c1nnc(-c2ccccc2F)s1` [Compound 25, 2-(5-(2-Fluorophenyl)-1,3,4-thiadiazol-2-yl)isoindoline-1,3-dione], the MIC in data set [1] (setting [4]) is > 200 µM. Also, the IC50 in data set [1] (setting [5]) came to 133 µM.
Compound `Cc1cccc(N2C(=O)c3ccccc3C2=O)c1` [Compound 5, 2-(m-Tolyl)isoindoline-1,3-dione] had an MIC in data set [1] (setting [4]) of 100 µM (≈ 23.7 µg/mL). Also, the IC50 in data set [1] (setting [5]) is 29 µM. Also, the IC50 at 3 days in data set [2] is > 150 µM.
For `O=C1c2ccccc2C(=O)N1c1nnc(-c2ccc(I)cc2)s1` [Compound 27, 2-(5-(4-Iodophenyl)-1,3,4-thiadiazol-2-yl)isoindoline-1,3-dione], the MIC in data set [1] (setting [4]) was 64 µM (≈ 27.7 µg/mL). Further, the IC50 in data set [1] (setting [5]) was found to be 18 µM; in data set [3] it was 8.65 µM. Besides, the IC50 at 3 days in data set [2] was > 200 µM.
Consider `O=C1c2ccccc2C(=O)N1c1ccc(Cl)cc1` [Compound 6, 2-(4-Chlorophenyl)isoindoline-1,3-dione], for which the MIC in data set [1] (setting [4]) was 94 µM (≈ 24.2 µg/mL). Also, the IC50 in data set [1] (setting [5]) was determined as 28 µM. The IC50 at 3 days in data set [2] is > 150 µM.
As for `O=C1c2ccccc2C(=O)N1c1nnc(Cc2ccccc2)s1` [Compound 24, 2-(5-Benzyl--1,3,4-thiadiazol-2-yl)isoindoline-1,3-dione], the MIC in data set [1] (setting [4]) was > 200 µM. In addition, the IC50 in data set [1] (setting [5]) is > 200 µM.

As a reminder, the IC50 is the concentration that gives 50% inhibition.

Values taken from PMC9244950 (ACS Omega, 2022).
